≈ marks a conversion by molar mass, not a printed value.
Experiments:
[1] = system: P. falciparum 3D7 clone of NF54; test: [3H]hypoxanthine drug sensitivity assay, 3D7 clone; assay type: cell-based; details: Plasmodium falciparum; P. falciparum 3D7, sensitive to all anti-malarials; 48 h, [3H]hypoxanthine uptake; read-out: IC50 3D7(µg/ml)
Experimental: (§1) The cultures are naturally asynchronous (65-75% ring stage) and are maintained in continuous log phase growth in RPMI-1640 medium (as developed by Moore et. al. at Roswell Park Memorial Institute, sold by Sigma Aldrich) supplemented with 5% washed human A+ erythrocytes, 25 mM Hepes, […] NaHCO3, and AlbuMAXII (lipid-rich bovine serum albumin) sold GIBCO, Grand Island, NY (CM). All cultures and assays were conducted at 37°C under an atmosphere of 5% CO2 and 5% O2, with a balance of N2.
(§2) The compounds were further diluted to the appropriate concentration using complete medium RPMI-1640 supplemented with 15nM cold hypoxanthine and AlbuMAXII.
Assays were performed in sterile 96-well microtitre plates; each plate contained 100 µl of parasite culture (0.5% parasitemia, 2.5% hematocrit). Each compound was tested in triplicate and parasite growth compared to control and blank (uninfected erythrocytes) wells. After 24h of incubation at 37°C, […] of [^3H]hypoxanthine was added to each well. Cultures were incubated for a further 24 h before they were harvested onto glass-fiber filter mats. The radioactivity was counted using a Wallac Microbeta® 1450 scintillation counter. […] Percentage inhibition was calculated from comparison to blank and control wells, and IC50 values calculated using Microsoft XLFit ® line fitting software (IDBS, UK).
The preliminary screen used the 3D7 strain. The compounds were tested at 6 concentrations (30, 10, 3, 1, 0.3, and 0.1 µg/ml).
(§3) Both the 3D7 clone and the K1 line were used. The compounds were diluted three-fold over at 12 different concentrations with an appropriate starting concentration based on the preliminary screen. The IC50 was determined by a sigmoidal dose response analysis using Microsoft XLFit™ (IDBS, UK).

P. falciparum K1 strain = test: [3H]hypoxanthine drug sensitivity assay, K1 strain; assay type: cell-based; details: Plasmodium falciparum, K1; read-out: IC50 K1
Experimental: as §1, §2
Assays were performed in sterile 96-well microtitre plates; each plate contained 100 µl of parasite culture (0.5% parasitemia, 2.5% hematocrit). Each compound was tested in triplicate and parasite growth compared to control and blank (uninfected erythrocytes) wells. After 24h of incubation at 37°C, […] of [^3H]hypoxanthine was added to each well. Cultures were incubated for a further 24 h before they were harvested onto glass-fiber filter mats. The radioactivity was counted using a Wallac Microbeta® 1450 scintillation counter. The results were recorded as counts per minute (CPM) per well at each compound concentration, control and blank wells. Percentage inhibition was calculated from comparison to blank and control wells, and IC50 values calculated using Microsoft XLFit ® line fitting software (IDBS, UK).
as §3

[2] = system: Plasmodium berghei ANKA strain; test: In vivo antiparasitic activity in infected mice (4-day dosing, parasitemia on day 5); details: mice infected with P. berghei ANKA; for Activity at the dose 10 mg/kg (%): 10 mg/kg every day for 4 days; for Activity at the dose 50 mg/kg (%): 50 mg/kg every day for 4 days
Experimental: Female mice (TFW or BALB/c, specific pathogen free), 18-20 g, or
Infection: Blood was taken from donor mice and diluted in RPMI-1640 medium to a parasitemia of 1% (the equivalent of 1x10^7 infected erythrocytes/ml) whilst kept on ice. An inoculum of 0.2 ml was administered to each mouse by the intravenous route. At 2-4 hours post-inoculation dosing commences.
Evaluation endpoint: On day 5 blood smears of all animals (2 slides/mouse) were prepared, fixed with methanol and stained with 10% Giemsa's stain. Parasitemia was determined microscopically by counting 1000 red blood cells under oil immersion at 1000x magnification.
Each of the tested compounds of formula (I) according to the invention was prepared as a stock solution of 5 mg/ml in 10% DMSO/PBS. Insoluble compounds of formula (I) were milled with stainless steel balls for up to 24 hours to reduce particle size. Fresh dilutions were prepared each day. The route of administration of tested compounds is intra peritoneal (i.p.).
Compounds were formulated at 10 mg/kg or at 50 mg/kg in a standard suspension vehicle (0.5% carboxymethylcellulose, 0.5% benzyl alcohol, 0.4% Tween® 80 in 0.9% NaCl) for both oral and i.p. administration.
Dosing was over a 4 day period as above, and evaluation was also as above.

Cn1ccnc1CN1CC[C@@H](N2CC(=O)N3[C@H](c4ccc5c(c4)OCO5)c4[nH]c5ccccc5c4C[C@@H]3C2=O)C1 [Compound 28, (6R,12aR)-6-Benzo[1,3]dioxol-5-yl-2-[(R)-1-(1-methyl-1H-imidazol-2-ylmethyl)-pyrrolidin-3-yl]-2,3,6,7,12,12a-hexahydro-pyrazino[1',2':1,6]pyrido[3,4-b]indole-1,4-dione]
IC50 [1]: 0.09 µg/mL (≈ 0.167 µM)
IC50 (P. falciparum K1 strain): 0.07 µg/mL (≈ 0.13 µM)
Activity at the dose 10 mg/kg (%) [2]: 24%
Activity at the dose 50 mg/kg (%) [2]: 32%

O=C1[C@H]2Cc3c([nH]c4ccccc34)[C@@H](c3ccc4c(c3)OCO4)N2C(=O)CN1[C@@H]1CCN(Cc2ccccc2)C1 [Compound 6, (6R,12aR)-6-Benzo[1,3]dioxol-5-yl-2-((R)-1-benzyl-pyrrolidin-3-yl)-2,3,6,7,12,12a-hexahydro-pyrazino[1',2':1,6]pyrido [3,4-b] indole-1,4-dione]
IC50 [1]: 0.1 µg/mL (≈ 0.187 µM)
IC50 (P. falciparum K1 strain): 0.12 µg/mL (≈ 0.224 µM)
Activity at the dose 50 mg/kg (%) [2]: 43%

Cn1ccnc1CN1CC[C@@H](N2CC(=O)N3[C@@H](c4ccc5c(c4)OCO5)c4[nH]c5ccccc5c4C[C@@H]3C2=O)C1 [Compound 29, (6S,12aR)-6-Benzo[1,3]dioxol-5-yl-2-[(R)-1-(1-methyl-1H-imidazol-2-ylmethyl)-pyrrolidin-3-yl]-2,3,6,7,12,12a-hexahydro-pyrazino[1',2':1,6]pyrido[3,4-b]indole-1,4-dione]
IC50 [1]: 0.5 µg/mL (≈ 0.928 µM)
IC50 (P. falciparum K1 strain): 0.09 µg/mL (≈ 0.167 µM)
Activity at the dose 50 mg/kg (%) [2]: 19%

CN(C)c1ccc(CN2CC[C@@H](N3CC(=O)N4[C@H](c5ccc6c(c5)OCO6)c5[nH]c6ccccc6c5C[C@@H]4C3=O)C2)cc1 [Compound 26, (6R,12aR)-6-Benzo[1,3]dioxol-5-yl-2-[(R)-1-(4-dimethylamino-benzyl)-pyrrolidin-3-yl]-2,3,6,7,12,12a-hexahydro-pyrazino[1',2':1,6]pyrido[3,4-b]indole-1,4-dione]
IC50 [1]: 0.006 µg/mL (≈ 0.0104 µM)
IC50 (P. falciparum K1 strain): 0.14 µg/mL (≈ 0.242 µM)
Activity at the dose 10 mg/kg (%) [2]: 15%
Activity at the dose 50 mg/kg (%) [2]: 17%

Source: patent EP1914235A1, “CHIRAL TETRA-HYDRO BETA-CARBOLINE DERIVATIVES AND APPLICATIONS THEREOF AS ANTIPARASITIC COMPOUNDS” (Université de Lille 2 Droit et Santé, priority 2006, dated 2008)
